Among the data in ChEMBL document CHEMBL4715899, “In-situ side-chain peptide cyclization as a breaker strategy against the amyloid aggregating peptide” (Bioorg Med Chem, 2021) are Activity and inhibition values, retold here.

The source made the active and inactive calls. The rule behind the calls is not given here. Residues, ends and D or L forms follow the SMILES beside them. *: point of attachment. OBn = c1ccc(CO*)cc1

The nature of data set [1]: Aggregation property of the compound in PBS buffer at pH 7.4 at 50 uM after 7 days by thioflavin-T fluorescence assay. The conditions noted are these: pH 7.4, 168 h, time 7 day. It counts as physicochemical.
Data set [2] is described as follows: Amyloidogenic property of compound in PBS buffer at pH 7.4 assessed as fibrillar assembly at 50 uM after 7 days by TEM anlaysis. Particulars: time 7.0 day.
A short description of data set [3]: Amyloidogenic property of compound in PBS buffer at pH 7.4 assessed as fibrillar assembly at 50 uM after 7 days by Congo-Red staining based birefringence anlaysis. Particulars: time 7.0 day.
The species entered for data set [4] is Homo sapiens. The data set can be described thus: Inhibition of amyloid beta (1 to 40) (unknown origin) aggregation assessed as fibril formation at protein to ligand concentration ratio of 1:1 to 1:5 after 7 days by thioflavin-T fluorescence assay. Particulars: time 7.0 day.
Data set [5] is filed under the species Homo sapiens. The data set can be described thus: Inhibition of amyloid beta (1 to 40) (unknown origin) aggregation at protein to ligand concentration ratio of 1:1 to 1:5 after 7 days by CD spectroscopic analysis. The conditions noted are these: time 7.0 day.
The species entered for data set [6] is Homo sapiens. The data set can be described thus: Inhibition of amyloid beta (1 to 40) (unknown origin) aggregation at protein to ligand concentration ratio of 1:1 to 1:5 after 7 days by FTIR analysis. Particulars: time 7.0 day.
Data set [7] is filed under the species Homo sapiens. The experiment in a line: Inhibition of amyloid beta (1 to 40) (unknown origin) aggregation assessed as fibril formation at protein to ligand concentration ratio of 1:1 to 1:5 after 7 days by TEM analysis. Particulars: time 7.0 day.
The species entered for data set [8] is Homo sapiens. The experiment in a line: Inhibition of amyloid beta (1 to 40) (unknown origin) aggregation assessed as fibril formation at protein to ligand concentration ratio of 1:1 to 1:5 after 7 days by Congo-Red staining based birefringence anlaysis. The conditions noted are these: time 7.0 day.
For data set [9], the species on record is Homo sapiens. The experiment in a line: Disruption of preformed amyloid beta (1 to 40) (unknown origin) aggregation assessed as reduction in fibril formation at protein to ligand concentration ratio of 1:1 to 1:5 after 7 days by thioflavin-T fluorescence assay. The conditions noted are these: time 7.0 day.
The species named for data set [10] is Homo sapiens. The experiment in a line: Disruption of preformed amyloid beta (1 to 40) (unknown origin) aggregation assessed as reduction in fibril formation at protein to ligand concentration ratio of 1:1 to 1:5 after 7 days by CD spectroscopic analysis. Particulars: time 7.0 day.
The species named for data set [11] is Homo sapiens. The experiment in a line: Disruption of preformed amyloid beta (1 to 40) (unknown origin) aggregation assessed as reduction in fibril formation at protein to ligand concentration ratio of 1:1 to 1:5 after 7 days by FTIR analysis. Particulars: time 7.0 day.
Data set [12] is filed under the species Homo sapiens. The data set can be described thus: Disruption of preformed amyloid beta (1 to 40) (unknown origin) aggregation assessed as reduction in fibril formation at protein to ligand concentration ratio of 1:1 to 1:5 after 4 to 7 days by FTIR analysis. Particulars: time 4-7 day.
The species entered for data set [13] is Homo sapiens. The experiment in a line: Disruption of preformed amyloid beta (1 to 40) (unknown origin) aggregation assessed as reduction in fibril formation at protein to ligand concentration ratio of 1:1 to 1:5 after 4 to 7 days by Congo-Red staining based birefringence anlaysis. The conditions noted are these: time 4-7 day.
For data set [14], the species on record is Homo sapiens. The experiment in a line: Inhibition of amyloid beta (1 to 40) (unknown origin)-induced pore formation in large unilamellar vesicles at 10 days pretested 1:5 ratio of amyloid beta (1 to 40) to ligand concentration followed by LUV treatment and measured up to 120 mins by carboxy-fluorescein dye assay. The conditions noted are these: time 10.0 day.

The species named for data set [15] is Homo sapiens. The experiment in a line: Inhibition of preformed amyloid beta (1 to 40) (unknown origin)-induced pore formation in large unilamellar vesicles at 10 days pretested 1:5 ratio of amyloid beta (1 to 40) to ligand concentration followed by LUV treatment and measured up to 120 mins by carboxy-fluorescein dye assay. The conditions noted are these: time 10.0 day.

For data set [16], the species on record is Homo sapiens. The experiment in a line: Inhibition of amyloid beta (1 to 40) (unknown origin)-induced pore formation in large unilamellar vesicles at 10 days pretested 1:5 ratio of amyloid beta (1 to 40) to ligand concentration followed by LUV treatment and measured up to 72 hrs by carboxy-fluorescein dye assay. The conditions noted are these: time 10.0 day.

The species named for data set [17] is Homo sapiens. The experiment in a line: Inhibition of preformed amyloid beta (1 to 40) (unknown origin)-induced pore formation in large unilamellar vesicles at 10 days pretested 1:5 ratio of amyloid beta (1 to 40) to ligand concentration followed by LUV treatment and measured up to 172 hrs by carboxy-fluorescein dye assay. Particulars: time 10.0 day.

Turning to `CC(=O)N[C@@H](CCCCN)C(=O)N[C@@H](C)C(=O)N[C@@H](CCC(=O)OCc1ccccc1)C(=O)N[C@@H](Cc1ccccc1)C(=O)N[C@@H](Cc1ccccc1)C(=O)N[C@@H](C)C(N)=O` (Ac-KAE(OBn)FFA-NH2), the Activity result in data set [1] was “Not Active”. Also, the result in [2] and in [3] was inactive. Besides, the inhibition entry in data set [4], in data set [5], in data set [6], in [7] and in [8] was “Active” throughout. The outcome in data set [9], in data set [10], in [11], in [12] and in data set [13] was Active.

As to `CC(=O)N[C@@H](CCCCN)C(=O)N[C@@H](CC(C)C)C(=O)N[C@@H](CCC(=O)OCc1ccccc1)C(=O)N[C@@H](Cc1ccccc1)C(=O)N[C@@H](Cc1ccccc1)C(=O)N[C@@H](C)C(N)=O` (Ac-KLE(OBn)FFA-NH2), the Activity result in [1] is “Not Active”. Also, the result in data set [2] and in data set [3] was inactive. Further, the inhibition result in [4], in data set [5], in data set [6], in data set [7], in data set [8] and in [14] was “Active” throughout. Further, the inhibition entry in [15], in data set [16] and in [17] was “Active” throughout. The result in data set [9], in data set [10], in [11], in data set [12] and in [13] was Active.

Consider `CC(=O)N[C@@H](CCCCN)C(=O)NCC(=O)N[C@@H](CCC(=O)OCc1ccccc1)C(=O)N[C@@H](Cc1ccccc1)C(=O)N[C@@H](Cc1ccccc1)C(=O)N[C@@H](C)C(N)=O` (Ac-KGE(OBn)FFA-NH2), for which, in data set [1], the Activity result is listed as “Not Active”. Moreover, the outcome in data set [2] and in data set [3] was inactive. Moreover, the inhibition entry in data set [4], in data set [5], in [6], in [7] and in [8] was “Active” throughout. The outcome in data set [9], in data set [10], in [11], in [12] and in [13] was Active.
